# ChEMBL document CHEMBL1124620, “New 1,4-dihydropyridine derivatives combining calcium antagonism and alpha-adrenolytic properties” (J Med Chem, 1989)
# Assays:
# [1] = organism: Sus scrofa; experiment: Calcium antagonistic activity was evaluated from the inhibition of CaCl2-induced contraction of depolarized pig coronary artery; format: functional
# [2] = biological target: T1, Adrenergic receptor alpha-2 (Rattus norvegicus, UniProt P22086+P19328+P22909); experiment: Ability to inhibit [3H]yohimbine binding to alpha-2 adrenergic receptor of rat cerebral cortex preparation; format: tissue-based
# T1 sequence (P22086 whole entry): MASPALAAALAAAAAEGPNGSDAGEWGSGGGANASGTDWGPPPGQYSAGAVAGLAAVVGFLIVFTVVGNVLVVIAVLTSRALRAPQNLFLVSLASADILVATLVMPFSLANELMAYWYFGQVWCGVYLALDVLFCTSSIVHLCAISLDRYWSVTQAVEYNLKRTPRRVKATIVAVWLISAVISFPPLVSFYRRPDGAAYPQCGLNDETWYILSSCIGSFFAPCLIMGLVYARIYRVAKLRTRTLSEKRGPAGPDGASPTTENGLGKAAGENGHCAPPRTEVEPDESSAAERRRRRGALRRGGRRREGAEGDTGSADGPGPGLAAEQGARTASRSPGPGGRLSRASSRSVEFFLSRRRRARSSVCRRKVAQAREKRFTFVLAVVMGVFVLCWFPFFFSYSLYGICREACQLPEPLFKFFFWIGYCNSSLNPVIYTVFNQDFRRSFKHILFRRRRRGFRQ
# T1 sequence (P19328 whole entry): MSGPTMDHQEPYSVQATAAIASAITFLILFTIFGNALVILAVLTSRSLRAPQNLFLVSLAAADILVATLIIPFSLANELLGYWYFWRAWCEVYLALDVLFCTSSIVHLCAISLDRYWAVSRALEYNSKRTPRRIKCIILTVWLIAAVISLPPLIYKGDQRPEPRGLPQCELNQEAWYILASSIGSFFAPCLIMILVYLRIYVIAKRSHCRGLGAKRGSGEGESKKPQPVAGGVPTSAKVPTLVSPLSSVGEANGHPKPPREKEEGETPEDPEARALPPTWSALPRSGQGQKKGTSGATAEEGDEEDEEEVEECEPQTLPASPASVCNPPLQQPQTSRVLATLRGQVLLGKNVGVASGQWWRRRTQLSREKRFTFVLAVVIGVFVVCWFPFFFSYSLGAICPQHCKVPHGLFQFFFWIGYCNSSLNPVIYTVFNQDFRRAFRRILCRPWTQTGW
# T1 sequence (P22909 whole entry): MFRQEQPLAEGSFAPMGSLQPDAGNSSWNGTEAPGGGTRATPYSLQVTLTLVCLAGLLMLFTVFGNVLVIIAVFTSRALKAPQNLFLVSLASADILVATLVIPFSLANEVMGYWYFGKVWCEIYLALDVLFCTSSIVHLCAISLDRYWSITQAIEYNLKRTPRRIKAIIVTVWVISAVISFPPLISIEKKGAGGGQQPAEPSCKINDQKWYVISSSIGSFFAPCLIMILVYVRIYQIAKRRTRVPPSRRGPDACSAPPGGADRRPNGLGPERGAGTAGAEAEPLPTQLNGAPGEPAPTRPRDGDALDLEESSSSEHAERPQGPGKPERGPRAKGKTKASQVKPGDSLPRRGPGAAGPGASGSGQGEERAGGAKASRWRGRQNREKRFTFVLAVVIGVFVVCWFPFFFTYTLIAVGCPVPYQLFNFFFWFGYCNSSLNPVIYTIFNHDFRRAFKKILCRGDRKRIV
# [3] = biological target: T1, Adrenergic receptor alpha-2; experiment: Alpha-2-adrenolytic activity was assessed from the ability to inhibit [3H]yohimbine binding to rat cerebral cortex preparation; format: tissue-based
# [4] = biological target: T2, Adrenergic receptor alpha-2 (Homo sapiens, UniProt P08913+P18825+P18089); experiment: Alpha-2-adrenolytic activity was assessed in vitro from the ability to inhibit norepinephrine binding to guinea pig vas deferens; set-up: species or system Cavia porcellus; details: target entry is the homologue from another species
# T2 sequence (P08913 whole entry): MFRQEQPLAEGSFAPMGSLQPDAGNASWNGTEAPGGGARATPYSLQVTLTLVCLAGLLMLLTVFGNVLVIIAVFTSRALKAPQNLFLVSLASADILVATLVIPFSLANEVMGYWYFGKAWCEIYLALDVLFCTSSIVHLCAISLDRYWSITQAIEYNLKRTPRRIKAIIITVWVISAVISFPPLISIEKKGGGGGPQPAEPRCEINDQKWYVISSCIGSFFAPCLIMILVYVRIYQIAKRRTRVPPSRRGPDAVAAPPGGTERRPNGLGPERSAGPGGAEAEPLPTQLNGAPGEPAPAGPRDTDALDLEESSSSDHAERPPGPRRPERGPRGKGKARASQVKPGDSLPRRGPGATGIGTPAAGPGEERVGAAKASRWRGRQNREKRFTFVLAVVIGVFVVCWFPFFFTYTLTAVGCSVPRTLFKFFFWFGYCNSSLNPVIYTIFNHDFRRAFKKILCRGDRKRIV
# T2 sequence (P18825 whole entry): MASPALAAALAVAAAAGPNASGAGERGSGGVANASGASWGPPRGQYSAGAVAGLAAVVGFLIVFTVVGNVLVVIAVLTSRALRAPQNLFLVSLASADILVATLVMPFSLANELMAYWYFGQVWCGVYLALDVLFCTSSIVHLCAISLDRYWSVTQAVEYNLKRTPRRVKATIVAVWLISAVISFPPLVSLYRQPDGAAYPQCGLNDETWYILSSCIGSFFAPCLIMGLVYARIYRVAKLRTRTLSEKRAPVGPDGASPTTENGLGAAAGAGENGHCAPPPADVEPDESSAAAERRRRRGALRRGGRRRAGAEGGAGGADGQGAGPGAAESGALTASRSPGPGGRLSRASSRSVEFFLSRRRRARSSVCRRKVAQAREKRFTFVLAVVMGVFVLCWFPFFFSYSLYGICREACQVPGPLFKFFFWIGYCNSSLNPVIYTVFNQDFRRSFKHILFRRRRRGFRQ
# T2 sequence (P18089 whole entry): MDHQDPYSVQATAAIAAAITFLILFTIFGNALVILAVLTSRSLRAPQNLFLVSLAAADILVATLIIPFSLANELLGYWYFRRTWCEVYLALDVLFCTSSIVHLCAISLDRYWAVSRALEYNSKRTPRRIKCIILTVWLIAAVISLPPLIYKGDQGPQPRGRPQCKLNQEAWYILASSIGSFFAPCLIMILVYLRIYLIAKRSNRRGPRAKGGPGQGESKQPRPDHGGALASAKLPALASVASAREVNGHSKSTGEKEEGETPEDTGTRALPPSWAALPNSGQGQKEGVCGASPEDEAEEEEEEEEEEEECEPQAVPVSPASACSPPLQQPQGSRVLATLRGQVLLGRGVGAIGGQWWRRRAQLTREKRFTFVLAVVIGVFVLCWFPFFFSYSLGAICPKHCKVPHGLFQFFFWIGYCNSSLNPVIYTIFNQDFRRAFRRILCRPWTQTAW
Compound,"IC50 ([1]; Sus scrofa, Coronary artery)",IC50 [2],IC50 [3],IC50 [4],IC50 [1]
CO/C(O)=C1\C(C)=NC(C)=C(C(=O)OC(C)CN(C)CC2COc3ccccc3O2)C1c1cccc([N+](=O)[O-])c1.Cl (centres undefined),3.8 nM,470 nM,–,–,–
CC1=NC(C)=C(C(=O)OC(C)CN(C)CC2COc3ccccc3O2)C(c2cccc([N+](=O)[O-])c2)/C1=C(\O)OC(C)C.Cl (centres undefined),150 nM,–,2000 nM,>> 1e-6 M,–
CO/C(O)=C1\C(C)=NC(C)=C(C(=O)OCCN2CCC(n3c(O)nc4ccccc43)CC2)C1c1cccc([N+](=O)[O-])c1 (centres undefined),1000 nM,1600 nM,–,–,–
CO/C(O)=C1\C(C)=NC(C)=C(C(=O)OCCN(C)CC2COc3ccccc3O2)C1c1ccccc1[N+](=O)[O-] (centres undefined),4 nM,270 nM,–,–,–
COC(=O)C1=C(C)NC(C)=C(C(=O)OCCN(C)C[C@H]2COc3ccccc3O2)[C@@H]1c1cccc([N+](=O)[O-])c1.Cl (stereo in doubt; 6b),–,140 nM,–,–,10 nM
COC(=O)C1=C(C)NC(C)=C(C(=O)OCCN(C)C[C@H]2COc3ccccc3O2)[C@@H]1c1cccc([N+](=O)[O-])c1.Cl (stereo in doubt; 6a),–,4000 nM,–,–,1.5 nM

# More lines, now with the values ahead:
"IC50 ([1]; Sus scrofa, Coronary artery)",IC50 [2],IC50 [3],IC50 [4],IC50 [1],Compound
13 nM,480 nM,–,–,–,CO/C(O)=C1\C(C)=NC(C)=C(C(=O)OCCN(C)C(C)COc2ccccc2)C1c1cccc([N+](=O)[O-])c1.Cl (centres undefined)
> 10000 nM,16000 nM,–,–,–,CO/C(O)=C1\C(C)=NC(C)=C(C(=O)OCCN(C)C(c2ccccc2)C2CCCCC2)C1c1cccc([N+](=O)[O-])c1.Cl (centres undefined)
4.5 nM,480 nM,–,–,–,CO/C(O)=C1\C(C)=NC(C)=C(C(=O)OCCN(C)CC2COc3ccccc3O2)C1c1cccc([N+](=O)[O-])c1.Cl (centres undefined)
